# Source: publication PMC11212140, “Molecular Bidents with Two Electrophilic Warheads as a New Pharmacological Modality” (ACS Central Science, 2024)
# How the values were obtained:
# [1] = test system: EGFR^L858R/C775S Ba/F3 cells; experiment: Antiproliferation assay (CellTiter-Glo); format: cell-based; conditions: vs EGFR^L858R Ba/F3
# Experimental: Figure S6 Dose-response curves for the indicated compounds in EGFRL858R, EGFRL858R/C797S, and EGFRL858R/C775S Ba/F3 cells following 72 h of treatment. Cell viability was assessed with CellTiter-Glo.
# Data are presented as the mean ± SEM (n = 4). Representative data from three independent experiments
# (1 picture or pasted object on this page, not shown here)
# For infection of Ba/F3 cells, 2.5 mL of viral supernatant and 8 μg/mL polybrene was added to 2.5 million cells per well in six-well plates. The plate was centrifuged at 2500 rpm for 90 minutes at 37 °C for the spin infection. Then, virus-containing medium was removed 48 hours later and successfully infected cells were selected with the addition of 1 μg/mL puromycin to the medium.
# After 3 days, cells were transferred into the fresh medium without IL-3 and puromycin. IL-3-independent transformed cells were maintained in RPMI medium 1640 supplemented with 10%
# FBS. Expression of EGFR was examined by Western blot.
# Immunoblotting and antibodies
# Cells were lysed in RIPA buffer (150 mM NaCl, 1.0% IGEPAL® CA-630, 0.5% sodium deoxycholate, 0.1% SDS, 50 mM Tris, pH 8.0) (Sigma, Cat# R0278) with protease inhibitor and phosphatase inhibitor (Roche). The protein concentrations were measured by BCA analysis (Thermo Fisher Scientific, Cat # PI23225). […]
# or IRDye 680RD goat anti-Mouse IgG (LICOR Biosciences , Cat # 926-68070) secondary antibodies at room temperature for 1 hour. The membranes were detected on Odyssey CLx system. […]
# treatment. Cell viability was determined by using CellTiter-Glo (Promega #G7571) according to the manufacturer’s instructions, measuring luminescence using an Envision plate-reader (PerkinElmer Inc.). […]
# After 6 hours treatment, cells were pelleted, washed with PBS once and lysed with IP lysis buffer (25mMTris-HCl pH 7.4, 150mM NaCl, 1 mM EDTA, 1% NP-40 and 5% glycerol) (Thermo Fisher Scientific, Cat#87788) containing protease/phosphatase inhibitor cocktail (Roche). The protein concentrations were measured by BCA analysis (Pierce). […]
# [2] = In vivo pharmacokinetics in mice; conditions: male C57BL/6 mice
# Experimental: To address this question, we tested the GSH reactivity of ZNL-0056 (Table S3) and its in vivo pharmacokinetic (PK) properties using three routes of administration including: 1 mg/kg IV, 3 mg/kg IP, and 10 mg/kg PO in male C57BL/6 mice (Table S4).
# Table S4. Effect of ZNL-0056 in vivo- PK Parameters
# Dose: 1mg/Kg IV, 3mg/Kg IP, 10mg/Kg PO. Formulation: 0.1mg/mL(IV) and 0.3mg/mL (IP)
# and 1mg/mL (PO) solution in 5/25/70 EtOH/PEG300/D5W. […]
structure (smiles),measurement,setting,value
C=CC(=O)Nc1cc(C(=O)Nc2nc3cccc(C)c3n2[C@@H]2CCCCN(C(=O)C=C)C2)cs1 [ZNL-0056],potency loss (shift) in the EGFR^L858R/C775S mutant,[1],2 fold
same,area under the curve,[2]; 1 mg/kg IV,21 820 min·ng/mL
same,average maximal plasma concentration,[2]; 3 mg/kg IP,1.3 µmol/L
same,area under the curve,[2]; 10 mg/kg PO,63 341 min·ng/mL
same,average maximal plasma concentration,[2]; 10 mg/kg PO,1.4 µmol/L
same,half-life,"[2]; mouse, plasma, 1 mg/kg IV",19.8 min
same,bioavailability,"[2]; mouse, plasma, 10 mg/kg PO",24%
